| Compound | melting point [°C] |
| --- | --- |
| CC(=O)Nc1cc(C2CC2)n[nH]1 [Compound 88, N-(3-cyclopropyl-1H-pyrazol-5-yl)acetamide] | 167 to 171 |
| O=C(Nc1cc(C2CC2)n[nH]1)c1cc2ccccc2s1 [Compound 91, N-(3-cyclopropyl-1H-pyrazol-5-yl)-1-benzothiophene-2-carboxamide] | 238 to 239 |
| O=C(CCc1ccccc1)Nc1cc(C2CC2)n[nH]1 [Compound 93, N-(3-cyclopropyl-1H-pyrazol-5-yl)-3-phenylpropanamide] | 152 to 160 |
| COC(=O)c1ccc(C(=O)Nc2cc(C3CC3)n[nH]2)cc1 [Compound 94, Methyl 4-{[(3-cyclopropyl-1H-pyrazol-5-yl)amino]carbonyl}benzoate] | 173 to 174 |
| O=C(Nc1cc(C2CC2)n[nH]1)c1cc2ccccc2[nH]1 [Compound 102, N-(3-cyclopropyl-1H-pyrazol-5-yl)-1H-indole-2-carboxamide] | 268 to 269 |
| O=C(Nc1cc(C2CC2)n[nH]1)c1ccc[nH]1 [Compound 248, N-(3-cyclopropyl-1H-pyrazol-5-yl)-1H-pyrrole-2-carboxamide] | 220 to 221 |
